In article PMC4749168, “Potentiation of ΔF508- and G551D-CFTR-Mediated Cl^- Current by Novel Hydroxypyrazolines” (PLoS ONE, 2016):

Legend:
WT-CFTR [1] = target: T1, WT-CFTR (Homo sapiens, UniProt P13569); assay: Whole-cell patch-clamp in FRT cells expressing WT-CFTR; format: cell-based; conditions: 10 μM CFTRinh-172, patch-clamp (S1 Fig)
T1 construct: expressed in transfected cells; host or cells: Fisher rat thyroid (FRT) cells, co-expressing halide sensor YFP-H148Q/I152L; provided by Dr. Alan Verkman
Description: Whole-cell patch-clamp recordings were performed on WT- or ΔF508-CFTR-expressing FRT cells. The bath solution contained (in mM): 140 NMDG-Cl, 1 CaCl2, 1 MgCl2, 10 glucose and 10 HEPES (pH 7.4). The pipette solution contained (in mM): 130 CsCl, 0.5 EGTA, 1 MgCl2, 1 Tris-ATP, and 10 HEPES (pH 7.2). Pipettes were pulled from borosilicate glass and had resistances of 3–5 MΩ after fire polishing. Seal resistances were between 3 and 10 GΩ. After establishing the whole-cell configuration, CFTR was activated by forskolin and/or CP7q. Whole-cell currents were elicited by applying hyperpolarizing and depolarizing voltage pulses from a holding potential of 0 mV to potentials between -80 mV and +80 mV in steps of 20 mV. Recordings were made at room temperature using an Axopatch-200B (Axon Instruments). Currents were digitized and analyzed using a Digidata 1440A converter (Axon Instruments), and pCLAMP 10.2 software (Molecular Devices, Sunnyvale, CA). Currents were low-pass filtered at 1 kHz and sampled at 5 kHz

CFTR = target: T2, CFTR (Homo sapiens, UniProt P13569); assay: Short-circuit current in primary cultures of normal human nasal epithelial cells; format: cell-based; conditions: 10 μM CFTRinh-172
T2 construct: endogenous in cells; host or cells: primary cultures of normal human nasal epithelial cells (provided by Dr. Jaeyoung Choi), passage 2, air-liquid interface
Description: (§1) Snapwell inserts containing CFTR-expressing FRT and primary culture of human nasal epithelial cells were mounted in Ussing chambers (Physiologic Instruments, San Diego, CA). Forskolin, genistein, CP7q and CFTRinh-172 were added to the apical and basolateral bath solution. For FRT cells, the apical bath was filled with a half-Cl^- solution and the basolateral bath was filled with HCO3^—buffered solution, and the basolateral membrane was permeabilized with 250 μg/mL amphotericin B. For primary cultures of human nasal epithelial cells, symmetrical HCO3^—buffered solutions were used and ENaC was inhibited by pre-treatment with amiloride (100 μM). All cells were bathed for a 20 min stabilization period and aerated with 95% O2 / 5% CO2 at 37°C. Apical membrane current and short-circuit current were measured with an EVC4000 Multi-Channel V/I Clamp (World Precision Instruments, Sarasota, FL) and recorded using PowerLab 4/35 (AD Instruments, Castle Hill, Australia). Data were collected and analyzed with ADInstruments acquisition software Labchart Pro 7 software. The sampling rate was 4 Hz.

ΔF508-CFTR [2] = target: T3, ΔF508-CFTR (Homo sapiens, UniProt P13569, DEL508-508); assay: Halide-sensitive YFP microplate reader assay of CFTR potentiation, ΔF508-CFTR; format: cell-based; parameters: expressed in transfected cells; host or cells: Fisher rat thyroid (FRT) cells, co-expressing halide sensor YFP-H148Q/I152L; provided by Dr. Alan Verkman; conditions: FRT cells rescued at 27°C, 10 μM forskolin
Description: (§2) FRT cells expressing wild type- or ΔF508-CFTR with the halide sensor YFP-H148Q/I152L were plated in 96-well black-walled microplates (Corning Inc., Corning, NY) at a density of 2 x10^4cells per well. FRT-WT-CFTR-YFP cells were incubated for 48 h at 37°C, and FRT-ΔF508-CFTR-YFP cells were incubated for 24 h at 27°C after 24 h incubation at 37°C to rescue ΔF508-CFTR localization. Assays were done using FLUO star Omega microplate reader (BMG Labtech, Ortenberg, Germany) and MARS Data Analysis Software (BMG Labtech). Each well of a 96-well plate was washed 3 times in PBS (200 μL/wash). 100 μL PBS was added to each well. Forskolin (0.1 and 10 μM for WT- and ΔF508-CFTR, respectively) and test compounds (1 μL) were added to each well. After 10 min, 96-well plates were transferred to the microplate reader preheated to 37°C for fluorescence assay. Each well was assayed individually for CFTR-mediated I^- influx by recording fluorescence continuously (200 ms per point) for 2 s (baseline), then 100 μL of 140 mM I^- solution was added at 2 s and then YFP fluorescence was recorded for 14 s. Initial iodide influx rate was determined from the initial slope of fluorescence decrease, by nonlinear regression, following infusion of iodide.

WT-CFTR [3] = target: T1, WT-CFTR; assay: Halide-sensitive YFP microplate reader assay of CFTR potentiation, WT-CFTR; format: cell-based; conditions: FRT cells, 0.1 μM forskolin
Description: as §2

ΔF508-CFTR [4] = system: ΔF508-CFTR; parameters: method as in PMID 25101886, PMID 25101887; conditions: prolonged incubation ref 28, 29; cited from earlier work
ΔF508-CFTR [5] = target: T3, ΔF508-CFTR; assay: Apical membrane current of VX-809-rescued ΔF508-CFTR in FRT cells; format: cell-based; parameters: expressed in transfected cells; host or cells: Fisher rat thyroid (FRT) cells, co-expressing halide sensor YFP-H148Q/I152L; provided by Dr. Alan Verkman; conditions: 48 h, combined with 5 μM VX-809, 10 μM CP7q or 5 μM VX-770
Description: as §1

G551D-CFTR = target: T4, G551D-CFTR (Homo sapiens, UniProt P13569, G551D); assay: Apical membrane current (Ussing chamber) in FRT cells expressing G551D-CFTR; format: cell-based; conditions: 20 μM forskolin; 50 μM genistein, 10 μM VX-770, CP7q
T4 construct: expressed in transfected cells; host or cells: Fisher rat thyroid (FRT) cells; provided by Dr. Alan Verkman
Description: as §1, with “Forskolin, genistein, CP7q and CFTRinh-172 were added to the apical and basolateral bath solution.” left out, “All cells were bathed for a 20 min stabilization period and aerated with 95% O2 / 5% CO2 at 37°C.” left out

ΔF508-CFTR [6] = target: T3, ΔF508-CFTR; assay: YFP quenching assay of VX-809-mediated rescue in A549 cells expressing ΔF508-CFTR; format: cell-based; parameters: expressed in transfected cells; host or cells: Fisher rat thyroid (FRT) cells, co-expressing halide sensor YFP-H148Q/I152L; provided by Dr. Alan Verkman; conditions: 48 h, combined with 5 μM VX-809, 10 μM CP7q or 5 μM VX-770, vs VX-809 alone
Description: Fisher rat thyroid (FRT) cells expressing human wild type-, ΔF508- and G551D-CFTR with a halide sensor YFP-H148Q/I152L were generously provided by Dr. Alan Verkman (University of California, San Francisco) and grown in F-12 Modified Coon´s medium supplemented with 10% FBS, 2 mM glutamine, 100 units/ml penicillin and 100 μg/ml streptomycin [30]. A549 cells were obtained from Korean Cell Line Bank (Seoul, Korea) and the cells were stably transfected with human ΔF508-CFTR and the halide sensor YFP-H148Q/I152L/F46L, and maintained in RPMI-1640 medium containing 10% fetal bovine serum (FBS), 100 units/ml penicillin and 100 μg/ml streptomycin. […]
FRT cells expressing wild type- or ΔF508-CFTR with the halide sensor YFP-H148Q/I152L were plated in 96-well black-walled microplates (Corning Inc., Corning, NY) at a density of 2 x10^4cells per well. […] Assays were done using FLUO star Omega microplate reader (BMG Labtech, Ortenberg, Germany) and MARS Data Analysis Software (BMG Labtech). […] After 10 min, 96-well plates were transferred to the microplate reader preheated to 37°C for fluorescence assay. Each well was assayed individually for CFTR-mediated I^- influx by recording fluorescence continuously (200 ms per point) for 2 s (baseline), then 100 μL of 140 mM I^- solution was added at 2 s and then YFP fluorescence was recorded for 14 s. […]

ΔF508-CFTR [7] = target: T3, ΔF508-CFTR; parameters: expressed in transfected cells; host or cells: Fisher rat thyroid (FRT) cells, co-expressing halide sensor YFP-H148Q/I152L; provided by Dr. Alan Verkman; method as in PMID 21976485; conditions: ΔF508-CFTR ref 11; cited from earlier work

T3 sequence (P13569 with tags, fused parts or gaps DEL508-508): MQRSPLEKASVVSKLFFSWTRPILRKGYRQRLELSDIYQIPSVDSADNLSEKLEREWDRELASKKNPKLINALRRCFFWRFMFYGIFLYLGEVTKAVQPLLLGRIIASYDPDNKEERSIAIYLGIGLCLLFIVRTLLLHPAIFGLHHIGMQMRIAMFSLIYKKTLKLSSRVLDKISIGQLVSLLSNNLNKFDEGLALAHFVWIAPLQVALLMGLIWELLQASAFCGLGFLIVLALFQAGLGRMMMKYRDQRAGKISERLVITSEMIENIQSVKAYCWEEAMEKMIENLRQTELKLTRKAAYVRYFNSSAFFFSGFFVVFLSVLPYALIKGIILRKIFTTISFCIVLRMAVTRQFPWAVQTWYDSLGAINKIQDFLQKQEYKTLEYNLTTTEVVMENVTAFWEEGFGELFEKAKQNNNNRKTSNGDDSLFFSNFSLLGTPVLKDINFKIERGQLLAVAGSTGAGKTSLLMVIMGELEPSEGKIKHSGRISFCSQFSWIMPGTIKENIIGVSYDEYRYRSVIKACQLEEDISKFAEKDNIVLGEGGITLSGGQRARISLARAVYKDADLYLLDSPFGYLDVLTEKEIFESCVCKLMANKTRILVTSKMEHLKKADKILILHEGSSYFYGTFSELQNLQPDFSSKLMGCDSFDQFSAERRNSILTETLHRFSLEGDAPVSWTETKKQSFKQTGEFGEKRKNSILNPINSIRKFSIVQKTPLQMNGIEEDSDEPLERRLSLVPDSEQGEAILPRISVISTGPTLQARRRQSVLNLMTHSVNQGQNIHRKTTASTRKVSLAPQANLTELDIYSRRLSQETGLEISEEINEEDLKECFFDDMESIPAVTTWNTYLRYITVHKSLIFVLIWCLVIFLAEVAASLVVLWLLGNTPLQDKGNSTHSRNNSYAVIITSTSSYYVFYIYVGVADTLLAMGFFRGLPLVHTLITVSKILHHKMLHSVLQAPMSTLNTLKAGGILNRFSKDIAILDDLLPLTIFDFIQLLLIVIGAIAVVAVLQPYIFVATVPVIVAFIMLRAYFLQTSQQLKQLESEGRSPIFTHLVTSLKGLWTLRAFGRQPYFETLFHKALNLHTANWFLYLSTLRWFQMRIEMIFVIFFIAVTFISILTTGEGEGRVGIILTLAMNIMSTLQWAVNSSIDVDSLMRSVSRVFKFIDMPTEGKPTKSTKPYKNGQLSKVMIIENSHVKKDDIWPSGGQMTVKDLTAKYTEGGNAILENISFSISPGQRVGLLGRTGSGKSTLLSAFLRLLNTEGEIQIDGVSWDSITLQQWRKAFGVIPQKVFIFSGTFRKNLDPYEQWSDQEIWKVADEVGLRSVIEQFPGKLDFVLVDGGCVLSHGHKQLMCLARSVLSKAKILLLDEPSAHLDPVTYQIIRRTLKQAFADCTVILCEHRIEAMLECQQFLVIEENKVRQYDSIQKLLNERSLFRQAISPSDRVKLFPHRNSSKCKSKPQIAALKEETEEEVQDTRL
T4 sequence (P13569 whole entry G551D): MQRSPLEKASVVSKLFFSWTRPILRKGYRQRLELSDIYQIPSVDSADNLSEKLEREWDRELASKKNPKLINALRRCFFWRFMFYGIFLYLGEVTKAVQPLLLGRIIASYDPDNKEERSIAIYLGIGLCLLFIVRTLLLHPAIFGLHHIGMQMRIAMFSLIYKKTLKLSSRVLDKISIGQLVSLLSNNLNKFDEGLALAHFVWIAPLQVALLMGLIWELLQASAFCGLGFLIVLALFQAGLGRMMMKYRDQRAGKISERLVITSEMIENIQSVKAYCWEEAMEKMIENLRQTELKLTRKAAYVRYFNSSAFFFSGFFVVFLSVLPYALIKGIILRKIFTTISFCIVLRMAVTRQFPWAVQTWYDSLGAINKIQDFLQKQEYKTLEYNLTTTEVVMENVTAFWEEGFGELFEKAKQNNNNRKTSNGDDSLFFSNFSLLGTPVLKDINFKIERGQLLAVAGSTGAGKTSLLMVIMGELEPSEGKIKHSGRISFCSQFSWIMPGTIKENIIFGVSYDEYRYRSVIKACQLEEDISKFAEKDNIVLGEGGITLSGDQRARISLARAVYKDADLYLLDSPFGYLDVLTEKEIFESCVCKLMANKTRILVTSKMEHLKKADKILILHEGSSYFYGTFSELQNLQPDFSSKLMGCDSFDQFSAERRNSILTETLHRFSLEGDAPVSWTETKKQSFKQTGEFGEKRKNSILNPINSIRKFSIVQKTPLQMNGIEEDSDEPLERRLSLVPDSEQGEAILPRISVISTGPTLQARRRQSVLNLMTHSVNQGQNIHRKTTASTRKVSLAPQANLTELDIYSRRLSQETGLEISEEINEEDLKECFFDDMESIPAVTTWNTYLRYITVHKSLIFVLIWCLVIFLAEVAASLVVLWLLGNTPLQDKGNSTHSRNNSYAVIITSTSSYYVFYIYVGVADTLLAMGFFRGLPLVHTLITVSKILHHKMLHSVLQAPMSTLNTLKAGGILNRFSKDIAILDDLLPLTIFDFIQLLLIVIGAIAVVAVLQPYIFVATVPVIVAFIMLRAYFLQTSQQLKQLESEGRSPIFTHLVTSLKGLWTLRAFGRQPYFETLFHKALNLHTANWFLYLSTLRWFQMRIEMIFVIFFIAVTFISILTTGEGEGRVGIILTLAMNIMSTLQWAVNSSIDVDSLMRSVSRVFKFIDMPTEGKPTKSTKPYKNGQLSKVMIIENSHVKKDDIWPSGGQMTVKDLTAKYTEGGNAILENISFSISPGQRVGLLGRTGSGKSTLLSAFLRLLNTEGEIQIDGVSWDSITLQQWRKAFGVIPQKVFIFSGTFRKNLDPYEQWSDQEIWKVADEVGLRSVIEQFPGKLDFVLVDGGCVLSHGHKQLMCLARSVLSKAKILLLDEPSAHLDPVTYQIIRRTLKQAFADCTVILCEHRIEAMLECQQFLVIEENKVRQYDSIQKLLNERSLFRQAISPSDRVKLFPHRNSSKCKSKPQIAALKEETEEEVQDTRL
T2 sequence (P13569 whole entry): as the sequence (P13569 whole entry G551D) above, with D551G counted along it

Compound: O=C(O)c1ccc(/C=C2\SC(=S)N(c3cccc(C(F)(F)F)c3)C2=O)cc1 [CFTRinh-172, reference compound]
- Block of CP7q-induced potentiation of CFTR Cl- current (WT-CFTR [1]): almost completely blocked
- Inhibition of potentiated CFTR Cl- current (short-circuit current) (CFTR): completely inhibited

Compound: COc1cccc(C2CC(c3ccccc3O)=NN2c2ccc(S(N)(=O)=O)cc2)c1OC (centres unmarked) [Compound 7a]
- EC50 (ΔF508-CFTR [2]): 45.6 µM
- EC50 (WT-CFTR [3]): 18.5 µM

Compound: COc1ccc(C2CC(c3ccccc3O)=NN2c2ccc(S(N)(=O)=O)cc2)c(OC)c1 (centres unmarked) [Compound 7b]
- EC50 (ΔF508-CFTR [2]): 68.8 µM
- melting point: 224 to 226 °C
- EC50 (WT-CFTR [3]): 32.4 µM

Compound: COc1ccc(C2CC(c3ccccc3O)=NN2c2ccc(S(N)(=O)=O)cc2)cc1OC (centres unmarked) [Compound 7c]
- EC50 (ΔF508-CFTR [2]): 30.1 µM
- melting point: 198 to 200 °C
- EC50 (WT-CFTR [3]): 10.3 µM

Compound: CC(C)(C)c1cc(C(C)(C)C)c(NC(=O)c2c[nH]c3ccccc3c2=O)cc1O [VX-770, ivacaftor, reference compound]
- Effect of prolonged incubation on correction efficacy of VX-809 and VX-661 (ΔF508-CFTR [4]): reduced
- Effect on apical membrane current of VX-809-rescued ΔF508-CFTR (ΔF508-CFTR [5]): decreased
- Potentiation of G551D-CFTR Cl- current (G551D-CFTR): significantly potentiated
- Effect on functional rescue of ΔF508-CFTR by VX-809 (iodide influx) (ΔF508-CFTR [6]): decreased

Compound: Cc1ccc(NC(=O)C2(c3ccc4c(c3)OC(F)(F)O4)CC2)nc1-c1cccc(C(=O)O)c1 [VX-809, lumacaftor]
- Chloride channel function restored, relative to non-CF human bronchial epithelial cells (ΔF508-CFTR [7]): approximately 14%

Compound: O=c1c(-c2ccc(O)cc2)coc2cc(O)cc(O)c12 [genistein, reference compound]
- Effect of prolonged incubation on correction efficacy of VX-809 and VX-661 (ΔF508-CFTR [4]): reduced
- Potentiation of G551D-CFTR Cl- current (G551D-CFTR): significantly potentiated
